{"source": "paper PMC5218480", "about": "(PLoS ONE, 2017)", "tested_on": "MV-4-11 cells", "assay": "Gene expression microarray analysis (Affymetrix PrimeView) and GSEA", "format": "cell-based, human", "set-up": "RFU PODN (11730768_x_at) / Fold change /veh PODN (11730768_x_at) / RFU LINC00158 (11744669_a_at) / Fold change /veh LINC00158 (11744669_a_at) / RFU DUSP10 (11751237_a_at) / Fold change /veh DUSP10 (11751237_a_at) / RFU ID3 (11757404_x_at) / Fold change /veh ID3 (11757404_x_at) / RFU PLEKHG5 (11737974_s_at) / Fold change /veh PLEKHG5 (11737974_s_at) / RFU LRRC4B (11730491_at) / Fold change /veh LRRC4B (11730491_at) / RFU GIMAP4 (11747438_a_at) / Fold change /veh GIMAP4 (11747438_a_at) / RFU KRT8 (11758183_x_at) / Fold change /veh KRT8 (11758183_x_at) / RFU CNN1 (11734310_a_at) / Fold change /veh CNN1 (11734310_a_at) / RFU VPS37D (11726825_at) / Fold change /veh VPS37D (11726825_at) / RFU C10orf10 (11716522_x_at) / Fold change /veh C10orf10 (11716522_x_at) / RFU KIR2DL2 /// KIR2DL4 /// KIR2DL5A /// KIR2DL5B /// KIR2DS1 /// KIR2DS2 /// KIR2DS3 /// KIR2DS4 /// KIR3DL3 /// KIR3DL3 /// KIR3DS1 (11738374_at) / Fold change /veh KIR2DL2 /// KIR2DL4 /// KIR2DL5A /// KIR2DL5B /// KIR2DS1 /// KIR2DS2 /// KIR2DS3 /// KIR2DS4 /// KIR3DL3 /// KIR3DL3 /// KIR3DS1 (11738374_at) / RFU C1QL1 (11718748_at) / Fold change /veh C1QL1 (11718748_at) / RFU TMPRSS4 (11747572_a_at) / Fold change /veh TMPRSS4 (11747572_a_at) / RFU HAMP (11756126_x_at) / Fold change /veh HAMP (11756126_x_at) / RFU RNFT2 (11725882_a_at) / Fold change /veh RNFT2 (11725882_a_at) / RFU NR4A2 (11747474_a_at) / Fold change /veh NR4A2 (11747474_a_at) / RFU ABCC12 (11746883_a_at) / Fold change /veh ABCC12 (11746883_a_at) / RFU TMEM136 (11760407_x_at) / Fold change /veh TMEM136 (11760407_x_at) / RFU CLDN22 /// WWC2 (11732394_at) / Fold change /veh CLDN22 /// WWC2 (11732394_at) / RFU HLA-DPB1 (11760878_x_at) / Fold change /veh HLA-DPB1 (11760878_x_at) / RFU SPINT1 (11716480_a_at) / Fold change /veh SPINT1 (11716480_a_at) / RFU GAP43 (11754022_s_at) / Fold change /veh GAP43 (11754022_s_at) / RFU A4GNT (11735810_at) / Fold change /veh A4GNT (11735810_at) / RFU PRB3 (11715151_x_at) / Fold change /veh PRB3 (11715151_x_at) / RFU TUBB4B (11761932_at) / Fold change /veh TUBB4B (11761932_at) / RFU CAPN14 (11732068_a_at) / Fold change /veh CAPN14 (11732068_a_at) / RFU TMCC2 (11721928_a_at) / Fold change /veh TMCC2 (11721928_a_at) / RFU IRGQ (11745062_a_at) / Fold change /veh IRGQ (11745062_a_at) / RFU FAM174B (11720279_a_at) / Fold change /veh FAM174B (11720279_a_at) / RFU TMPRSS4 (11748680_a_at) / Fold change /veh TMPRSS4 (11748680_a_at) / RFU FAM212B (11763350_a_at) / Fold change /veh FAM212B (11763350_a_at) / RFU PLEKHG5 (11743358_a_at) / Fold change /veh PLEKHG5 (11743358_a_at) / RFU ZSCAN30 (11745921_a_at) / Fold change /veh ZSCAN30 (11745921_a_at) / RFU CMKLR1 (11741424_a_at) / Fold change /veh CMKLR1 (11741424_a_at) / RFU LOC101060620 /// MAPK8IP1 (11723275_at) / Fold change /veh LOC101060620 /// MAPK8IP1 (11723275_at) / RFU SPTSSB (11747773_x_at) / Fold change /veh SPTSSB (11747773_x_at) / RFU PRSS12 (11739890_at) / Fold change /veh PRSS12 (11739890_at) / RFU BIN1 (11741810_x_at) / Fold change /veh BIN1 (11741810_x_at) / RFU WNT11 (11732464_a_at) / Fold change /veh WNT11 (11732464_a_at) / RFU C10orf10 (11716521_a_at) / Fold change /veh C10orf10 (11716521_a_at) / RFU C5orf56 (11738089_at) / Fold change /veh C5orf56 (11738089_at) / RFU CYB561 (11721691_x_at) / Fold change /veh CYB561 (11721691_x_at) / RFU ANKRD19P (11752326_a_at) / Fold change /veh ANKRD19P (11752326_a_at) / RFU OR2T12 /// OR2T33 /// OR2T8 (11738714_s_at) / Fold change /veh OR2T12 /// OR2T33 /// OR2T8 (11738714_s_at) / RFU VCAN (11748164_a_at) / Fold change /veh VCAN (11748164_a_at) / RFU JSRP1 (11732532_at) / Fold change /veh JSRP1 (11732532_at) / RFU KRTAP10-11 (11738290_x_at) / Fold change /veh KRTAP10-11 (11738290_x_at) / RFU MYO3A (11730013_a_at) / Fold change /veh MYO3A (11730013_a_at) / RFU EBF3 (11725865_a_at) / Fold change /veh EBF3 (11725865_a_at) / RFU CAMK2N1 (11719241_x_at) / Fold change /veh CAMK2N1 (11719241_x_at) / RFU C5orf56 (11738088_a_at) / Fold change /veh C5orf56 (11738088_a_at) / RFU OLFML3 (11715873_a_at) / Fold change /veh OLFML3 (11715873_a_at) / RFU LOC100653217 /// NTM (11731650_a_at) / Fold change /veh LOC100653217 /// NTM (11731650_a_at) / RFU MAPK11 (11762145_a_at) / Fold change /veh MAPK11 (11762145_a_at) / RFU FIZ1 (11724087_x_at) / Fold change /veh FIZ1 (11724087_x_at) / RFU OASL (11726364_x_at) / Fold change /veh OASL (11726364_x_at) / RFU SOX15 (11748057_x_at) / Fold change /veh SOX15 (11748057_x_at) / RFU CD79A (11719716_a_at) / Fold change /veh CD79A (11719716_a_at) / RFU HIST1H1D (11736915_at) / Fold change /veh HIST1H1D (11736915_at) / RFU CASKIN2 (11723855_a_at) / Fold change /veh CASKIN2 (11723855_a_at) / RFU LOC730098 (11760151_x_at) / Fold change /veh LOC730098 (11760151_x_at) / RFU OR4N2 (11742367_at) / Fold change /veh OR4N2 (11742367_at) / RFU PRRT2 (11749266_a_at) / Fold change /veh PRRT2 (11749266_a_at) / RFU SNX32 (11753110_a_at) / Fold change /veh SNX32 (11753110_a_at) / RFU CDHR5 (11726645_a_at) / Fold change /veh CDHR5 (11726645_a_at) / RFU RCAN1 (11760418_a_at) / Fold change /veh RCAN1 (11760418_a_at) / RFU FAM167A (11723789_a_at) / Fold change /veh FAM167A (11723789_a_at) / RFU FAM26E (11764081_at) / Fold change /veh FAM26E (11764081_at) / RFU ISYNA1 (11749810_s_at) / Fold change /veh ISYNA1 (11749810_s_at) / RFU ACY1 (11761880_at) / Fold change /veh ACY1 (11761880_at) / RFU 11764098_at / Fold change /veh 11764098_at / RFU SAMD14 (11745864_x_at) / Fold change /veh SAMD14 (11745864_x_at) / RFU NPB (11741838_a_at) / Fold change /veh NPB (11741838_a_at) / RFU TMPRSS6 (11731388_a_at) / Fold change /veh TMPRSS6 (11731388_a_at) / RFU KRTAP10-2 (11738614_at) / Fold change /veh KRTAP10-2 (11738614_at) / RFU ARHGAP8 /// PRR5-ARHGAP8 (11727945_x_at) / Fold change /veh ARHGAP8 /// PRR5-ARHGAP8 (11727945_x_at) / RFU KRTAP5-7 /// NADSYN1 (11734609_at) / Fold change /veh KRTAP5-7 /// NADSYN1 (11734609_at) / RFU RASL12 (11751679_a_at) / Fold change /veh RASL12 (11751679_a_at) / RFU CDKN2B (11736163_a_at) / Fold change /veh CDKN2B (11736163_a_at) / RFU PRF1 (11729649_at) / Fold change /veh PRF1 (11729649_at) / RFU, ZNF638 /// ZNF638-IT1 / Fold change vs veh, ZNF638 /// ZNF638-IT1 / RFU, PANK3 / Fold change vs veh, PANK3 / RFU, SH3YL1 / Fold change vs veh, SH3YL1 / RFU, ZEB2 / Fold change vs veh, ZEB2 / RFU, NRIP1 / Fold change vs veh, NRIP1 / RFU, PTTG1IP / Fold change vs veh, PTTG1IP / RFU, CAPN2 / Fold change vs veh, CAPN2 / RFU, MED14 / Fold change vs veh, MED14 / RFU, SNORA58 / Fold change vs veh, SNORA58 / RFU, C1orf63 / Fold change vs veh, C1orf63 / RFU, LRRFIP1 / Fold change vs veh, LRRFIP1 / RFU, NDUFAF7 / Fold change vs veh, NDUFAF7 / RFU, SLC12A2 / Fold change vs veh, SLC12A2 / RFU, IBTK / Fold change vs veh, IBTK / RFU, ESF1 / Fold change vs veh, ESF1 / Fold change vs veh, TMEM50B / RFU, TAOK1 / Fold change vs veh, TAOK1 / RFU, ACBD3 / Fold change vs veh, ACBD3 / RFU, TMA16 / Fold change vs veh, TMA16 / RFU, RWDD3 / Fold change vs veh, RWDD3 / RFU, BCAT1 / Fold change vs veh, BCAT1 / RFU, EDEM3 / Fold change vs veh, EDEM3 / RFU, TMEM33 / Fold change vs veh, TMEM33 / RFU, WDR75 / Fold change vs veh, WDR75 / RFU, AHCTF1 / Fold change vs veh, AHCTF1 / RFU, TFRC / Fold change vs veh, TFRC / RFU, ZDHHC17 / Fold change vs veh, ZDHHC17 / RFU, NOM1 / Fold change vs veh, NOM1 / RFU, ARL8B / Fold change vs veh, ARL8B / RFU, ZBTB11 / Fold change vs veh, ZBTB11 / RFU, TAMM41 / Fold change vs veh, TAMM41 / RFU, KIAA1704 /// LOC100996395 / Fold change vs veh, KIAA1704 /// LOC100996395 / RFU, ING1 / Fold change vs veh, ING1 / RFU, TRMT61B / Fold change vs veh, TRMT61B / RFU, FUBP3 / Fold change vs veh, FUBP3 / RFU, TP53 / Fold change vs veh, TP53 / RFU, TNKS2 / Fold change vs veh, TNKS2 / RFU, ZFP14 / Fold change vs veh, ZFP14 / RFU, ACTR2 / Fold change vs veh, ACTR2 / RFU, PPP3R1 / Fold change vs veh, PPP3R1 / RFU, PIK3R1 / Fold change vs veh, PIK3R1 / RFU, HNRNPA1 / Fold change vs veh, HNRNPA1 / RFU, RNF170 / Fold change vs veh, RNF170 / RFU, ZNF28 / Fold change vs veh, ZNF28 / RFU, RNGTT / Fold change vs veh, RNGTT / RFU, OGT / Fold change vs veh, OGT / RFU, BRD1 / Fold change vs veh, BRD1 / RFU, MARS / Fold change vs veh, MARS / RFU, ZNF655 / Fold change vs veh, ZNF655 / RFU, FAHD1 / Fold change vs veh, FAHD1 / RFU, BDP1 / Fold change vs veh, BDP1 / RFU, LRRCC1 / Fold change vs veh, LRRCC1 / RFU, ARID1A / Fold change vs veh, ARID1A / RFU, ZNF146 / Fold change vs veh, ZNF146 / RFU, ZNF330 / Fold change vs veh, ZNF330 / RFU, GPN3 / Fold change vs veh, GPN3 / RFU, C9orf123 / Fold change vs veh, C9orf123 / RFU, N4BP2L2 / Fold change vs veh, N4BP2L2 / RFU, ARFIP1 / Fold change vs veh, ARFIP1 / RFU, FAM179B / Fold change vs veh, FAM179B / RFU, BCL10 / Fold change vs veh, BCL10 / RFU, UHRF1BP1L / Fold change vs veh, UHRF1BP1L / RFU, BET1 / Fold change vs veh, BET1 / RFU, CNOT2 / Fold change vs veh, CNOT2 / RFU, ZNF268 / Fold change vs veh, ZNF268 / Fold change vs veh, ZNF507 / RFU, DGCR2 / Fold change vs veh, DGCR2 / RFU, WDSUB1 / Fold change vs veh, WDSUB1 / Fold change vs veh, HSP90B1 /// MIR3652 / RFU, ADSS / Fold change vs veh, ADSS / RFU, GK / Fold change vs veh, GK / RFU, ZNF148 / Fold change vs veh, ZNF148 / RFU, TAF9 / Fold change vs veh, TAF9 / RFU, SLC1A5 / Fold change vs veh, SLC1A5 / RFU, SLMO2 / Fold change vs veh, SLMO2 / RFU, ABCC4 / Fold change vs veh, ABCC4 / RFU, LOC101060439 /// RAP1B / Fold change vs veh, LOC101060439 /// RAP1B / RFU, RFX7 / Fold change vs veh, RFX7 / RFU, GTPBP10 / Fold change vs veh, GTPBP10 / RFU, CNEP1R1 / Fold change vs veh, CNEP1R1 / RFU, BIVM-ERCC5 /// ERCC5 / Fold change vs veh, BIVM-ERCC5 /// ERCC5 / RFU, ILF3 / Fold change vs veh, ILF3 / RFU 11762660_at / Fold change /veh 11762660_at / RFU VCAN (11757783_s_at) / Fold change /veh VCAN (11757783_s_at) / RFU DDX43 (11728927_at) / Fold change /veh DDX43 (11728927_at) / RFU KRT8 (11758188_x_at) / Fold change /veh KRT8 (11758188_x_at) / RFU NKD1 (11759106_at) / Fold change /veh NKD1 (11759106_at) / RFU SRD5A1 (11742802_a_at) / Fold change /veh SRD5A1 (11742802_a_at) / RFU TPSAB1 /// TPSB2 (11721975_s_at) / Fold change /veh TPSAB1 /// TPSB2 (11721975_s_at) / RFU GSTM3 (11746129_a_at) / Fold change /veh GSTM3 (11746129_a_at) / RFU IL23R (11737362_x_at) / Fold change /veh IL23R (11737362_x_at) / RFU TMEM51 (11727254_a_at) / Fold change /veh TMEM51 (11727254_a_at) / RFU PIWIL2 (11732686_x_at) / Fold change /veh PIWIL2 (11732686_x_at) / RFU ORM1 (11744905_x_at) / Fold change /veh ORM1 (11744905_x_at) / RFU CCDC152 (11743942_at) / Fold change /veh CCDC152 (11743942_at) / RFU ECM1 (11717891_a_at) / Fold change /veh ECM1 (11717891_a_at) / RFU IL23R (11748794_a_at) / Fold change /veh IL23R (11748794_a_at) / RFU TNFAIP8L3 (11732012_x_at) / Fold change /veh TNFAIP8L3 (11732012_x_at) / RFU MBOAT4 (11741988_at) / Fold change /veh MBOAT4 (11741988_at) / RFU 11764193_at / Fold change /veh 11764193_at / RFU TMEM53 (11763286_at) / Fold change /veh TMEM53 (11763286_at) / RFU MAGEB2 (11727129_at) / Fold change /veh MAGEB2 (11727129_at) / RFU TMEM200A (11744735_a_at) / Fold change /veh TMEM200A (11744735_a_at) / RFU CCDC152 (11751479_a_at) / Fold change /veh CCDC152 (11751479_a_at) / RFU FAM211A (11726209_a_at) / Fold change /veh FAM211A (11726209_a_at) / RFU RGS16 (11746705_a_at) / Fold change /veh RGS16 (11746705_a_at) / RFU VCAN (11755009_s_at) / Fold change /veh VCAN (11755009_s_at) / RFU RHOB (11743442_s_at) / Fold change /veh RHOB (11743442_s_at) / RFU RGS16 (11720943_a_at) / Fold change /veh RGS16 (11720943_a_at) / RFU RGS16 (11720944_at) / Fold change /veh RGS16 (11720944_at) / RFU, VPS4B / Fold change vs veh, VPS4B / RFU, CREB1 / Fold change vs veh, CREB1 / RFU, DNAJC13 / Fold change vs veh, DNAJC13 / RFU, GNAQ / Fold change vs veh, GNAQ / RFU, CDK5R1 / Fold change vs veh, CDK5R1 / RFU, ZRANB3 / Fold change vs veh, ZRANB3 / RFU, CUL4A / Fold change vs veh, CUL4A / RFU, CCNY / Fold change vs veh, CCNY / RFU, UFL1 / Fold change vs veh, UFL1 / RFU, COG3 / Fold change vs veh, COG3 / RFU, DIAPH2 / Fold change vs veh, DIAPH2 / RFU, SKA2 / Fold change vs veh, SKA2 / RFU, AFF3 / Fold change vs veh, AFF3 / RFU, LMF1 / Fold change vs veh, LMF1 / RFU, IPO11 / Fold change vs veh, IPO11 / RFU, DFFB / Fold change vs veh, DFFB / RFU, FOXP1 / Fold change vs veh, FOXP1 / RFU, CARD8 / Fold change vs veh, CARD8 / RFU, STRN3 / Fold change vs veh, STRN3 / RFU, ADK / Fold change vs veh, ADK / RFU, RASSF2 / Fold change vs veh, RASSF2 / RFU, WIPF1 / Fold change vs veh, WIPF1 / RFU, LARP1B / Fold change vs veh, LARP1B / RFU, RASA1 / Fold change vs veh, RASA1 / RFU, RB1 / Fold change vs veh, RB1 / RFU, PPFIA1 / Fold change vs veh, PPFIA1 / RFU, MAT2A / Fold change vs veh, MAT2A / RFU, CCT5 / Fold change vs veh, CCT5 / RFU, WDR92 / Fold change vs veh, WDR92 / RFU, CUX1 / Fold change vs veh, CUX1 / RFU, TTC7A / Fold change vs veh, TTC7A / RFU, TMEM135 / Fold change vs veh, TMEM135 / RFU, DEPTOR / Fold change vs veh, DEPTOR / RFU, CPM / Fold change vs veh, CPM / RFU, DNAJB6 / Fold change vs veh, DNAJB6 / RFU, CACNA2D3 / Fold change vs veh, CACNA2D3 / RFU, DTX4 / Fold change vs veh, DTX4 / RFU, TFCP2 / Fold change vs veh, TFCP2 / RFU, GMCL1 /// GMCL1P1 / Fold change vs veh, GMCL1 /// GMCL1P1 / RFU, AEBP2 / Fold change vs veh, AEBP2 / RFU, SNHG1 /// SNORD22 /// SNORD25 /// SNORD26 /// SNORD27 /// SNORD28 /// SNORD29 /// SNORD31 / Fold change vs veh, SNHG1 /// SNORD22 /// SNORD25 /// SNORD26 /// SNORD27 /// SNORD28 /// SNORD29 /// SNORD31 / Fold change (Aza/veh), C12orf56 (ProbeSet 11735607_a_at) / Fold change (ACY-1035/veh), C12orf56 (ProbeSet 11735607_a_at) / Fold change (Aza/veh), FGFR1OP (ProbeSet 11751329_s_at) / Fold change (ACY-1035/veh), FGFR1OP (ProbeSet 11751329_s_at) / Fold change (Aza/veh), VPS36 (ProbeSet 11739960_a_at) / Fold change (ACY-1035/veh), VPS36 (ProbeSet 11739960_a_at) / RFU SYPL1 (11715823_x_at) / Fold change /veh SYPL1 (11715823_x_at) / RFU IGFBP7 (11715501_s_at) / Fold change /veh IGFBP7 (11715501_s_at) / RFU REEP3 (11722064_at) / Fold change /veh REEP3 (11722064_at) / RFU IGLL1 (11728026_x_at) / Fold change /veh IGLL1 (11728026_x_at): dose or concentration left out as unconfirmed", "settings": "MV-4-11 cells, 48 hours"}
{"smiles": "Nc1ncn([C@@H]2O[C@H](CO)[C@@H](O)[C@H]2O)c(=O)n1", "note": "[azacitidine]", "values": [{"measurement": "RFU OASL (11726364_x_at)", "value": 34.50, "unit": "RFU"}]}
